Reference: PubChem BioAssay AID1259407 (Chemical Carcinogenesis Research Information System (CCRIS), 2018)
The source made the active and inactive calls. No rule for the calls is given here.

Test system: CCRIS mutagenicity, Ames/micronucleus/aberration tests
Assay: CCRIS mutagenicity studies
[1] = Test System: AMES SALMONELLA TYPHIMURIUM, Strain/Indicator: TA98, Metabolic Activation: NONE, Method: STANDARD PLATE
[2] = Test System: AMES SALMONELLA TYPHIMURIUM, Strain/Indicator: TA98, Metabolic Activation: RAT, LIVER, S-9, AROCLOR 1254, Method: STANDARD PLATE
[3] = Test System: AMES SALMONELLA TYPHIMURIUM, Strain/Indicator: TA100, Metabolic Activation: NONE, Method: STANDARD PLATE
[4] = Test System: AMES SALMONELLA TYPHIMURIUM, Strain/Indicator: TA1535, Metabolic Activation: NONE, Method: STANDARD PLATE

In the case of `CC(C)=CCC1=C(O)c2ccccc2C(=O)C1=O`, the mutagenic call (Test System: AMES SALMONELLA TYPHIMURIUM, Strain/Indicator: TA97, Metabolic Activation: NONE, Method: PREINCUBATION) is reported as “inactive; negative”, the mutagenic call (Test System: AMES SALMONELLA TYPHIMURIUM, Strain/Indicator: TA97, Metabolic Activation: RAT, LIVER, S-9, PHENOBARBITAL AND 5,6-BENZOFLAVONE, Method: PREINCUBATION) is reported as “inactive; negative” and the mutagenic call (Test System: AMES SALMONELLA TYPHIMURIUM, Strain/Indicator: TA98, Metabolic Activation: HAMSTER, LIVER, S-9, AROCLOR 1254, Method: STANDARD PLATE) is reported as “inactive; negative”. The mutagenic call (Test System: AMES SALMONELLA TYPHIMURIUM, Strain/Indicator: TA98, Metabolic Activation: NONE, Method: PREINCUBATION) was “inactive; negative”, the mutagenic call [1] was “inactive; negative” and the mutagenic call [2] was “inactive; negative”. The mutagenic call (Test System: AMES SALMONELLA TYPHIMURIUM, Strain/Indicator: TA98, Metabolic Activation: RAT, LIVER, S-9, PHENOBARBITAL AND 5,6-BENZOFLAVONE, Method: PREINCUBATION) was “inactive; negative”, the mutagenic call (Test System: AMES SALMONELLA TYPHIMURIUM, Strain/Indicator: TA100, Metabolic Activation: HAMSTER, LIVER, S-9, AROCLOR 1254, Method: STANDARD PLATE) was “inactive; negative” and the mutagenic call (Test System: AMES SALMONELLA TYPHIMURIUM, Strain/Indicator: TA100, Metabolic Activation: NONE, Method: PREINCUBATION) was “inactive; negative”. The mutagenic call [3] was “inactive; negative”, the mutagenic call (Test System: AMES SALMONELLA TYPHIMURIUM, Strain/Indicator: TA100, Metabolic Activation: RAT, LIVER, S-9, AROCLOR 1254, Method: STANDARD PLATE) was “inactive; negative” and the mutagenic call (Test System: AMES SALMONELLA TYPHIMURIUM, Strain/Indicator: TA100, Metabolic Activation: RAT, LIVER, S-9, PHENOBARBITAL AND 5,6-BENZOFLAVONE, Method: PREINCUBATION) was “inactive; negative”. The mutagenic call (Test System: AMES SALMONELLA TYPHIMURIUM, Strain/Indicator: TA102, Metabolic Activation: NONE, Method: PREINCUBATION) was “inactive; negative”, the mutagenic call (Test System: AMES SALMONELLA TYPHIMURIUM, Strain/Indicator: TA102, Metabolic Activation: RAT, LIVER, S-9, PHENOBARBITAL AND 5,6-BENZOFLAVONE, Method: PREINCUBATION) was “inactive; negative” and the mutagenic call (Test System: AMES SALMONELLA TYPHIMURIUM, Strain/Indicator: TA104, Metabolic Activation: NONE, Method: PREINCUBATION) was “inactive; negative”. For the same compound, the mutagenic call (Test System: AMES SALMONELLA TYPHIMURIUM, Strain/Indicator: TA104, Metabolic Activation: RAT, LIVER, S-9, PHENOBARBITAL AND 5,6-BENZOFLAVONE, Method: PREINCUBATION) was “inactive; negative”, the mutagenic call (Test System: AMES SALMONELLA TYPHIMURIUM, Strain/Indicator: TA1535, Metabolic Activation: HAMSTER, LIVER, S-9, AROCLOR 1254, Method: STANDARD PLATE) was “inactive; negative” and the mutagenic call (Test System: AMES SALMONELLA TYPHIMURIUM, Strain/Indicator: TA1535, Metabolic Activation: NONE, Method: PREINCUBATION) was “inactive; negative”. The mutagenic call [4] was “inactive; negative”, the mutagenic call (Test System: AMES SALMONELLA TYPHIMURIUM, Strain/Indicator: TA1535, Metabolic Activation: RAT, LIVER, S-9, AROCLOR 1254, Method: STANDARD PLATE) was “inactive; negative” and the mutagenic call (Test System: AMES SALMONELLA TYPHIMURIUM, Strain/Indicator: TA1535, Metabolic Activation: RAT, LIVER, S-9, PHENOBARBITAL AND 5,6-BENZOFLAVONE, Method: PREINCUBATION) was “inactive; negative”. The mutagenic call (Test System: AMES SALMONELLA TYPHIMURIUM, Strain/Indicator: TA1537, Metabolic Activation: HAMSTER, LIVER, S-9, AROCLOR 1254, Method: STANDARD PLATE) was “inactive; negative”, the mutagenic call (Test System: AMES SALMONELLA TYPHIMURIUM, Strain/Indicator: TA1537, Metabolic Activation: NONE, Method: PREINCUBATION) was “inactive; negative” and the mutagenic call (Test System: AMES SALMONELLA TYPHIMURIUM, Strain/Indicator: TA1537, Metabolic Activation: NONE, Method: STANDARD PLATE) was “inactive; negative”. For the same compound, the mutagenic call (Test System: AMES SALMONELLA TYPHIMURIUM, Strain/Indicator: TA1537, Metabolic Activation: RAT, LIVER, S-9, AROCLOR 1254, Method: STANDARD PLATE) was “inactive; negative”, the mutagenic call (Test System: AMES SALMONELLA TYPHIMURIUM, Strain/Indicator: TA1537, Metabolic Activation: RAT, LIVER, S-9, PHENOBARBITAL AND 5,6-BENZOFLAVONE, Method: PREINCUBATION) was “inactive; negative” and the mutagenic call (Test System: AMES SALMONELLA TYPHIMURIUM, Strain/Indicator: TA1538, Metabolic Activation: HAMSTER, LIVER, S-9, AROCLOR 1254, Method: STANDARD PLATE) was “inactive; negative”. For the same compound, the mutagenic call (Test System: AMES SALMONELLA TYPHIMURIUM, Strain/Indicator: TA1538, Metabolic Activation: NONE, Method: PREINCUBATION) was “inactive; negative”, the mutagenic call (Test System: AMES SALMONELLA TYPHIMURIUM, Strain/Indicator: TA1538, Metabolic Activation: NONE, Method: STANDARD PLATE) was “inactive; negative” and the mutagenic call (Test System: AMES SALMONELLA TYPHIMURIUM, Strain/Indicator: TA1538, Metabolic Activation: RAT, LIVER, S-9, AROCLOR 1254, Method: STANDARD PLATE) was “inactive; negative”. The mutagenic call (Test System: AMES SALMONELLA TYPHIMURIUM, Strain/Indicator: TA1538, Metabolic Activation: RAT, LIVER, S-9, PHENOBARBITAL AND 5,6-BENZOFLAVONE, Method: PREINCUBATION) was “inactive; negative”, the mutagenic call (Test System: AMES SALMONELLA TYPHIMURIUM, Strain/Indicator: TA2637, Metabolic Activation: NONE, Method: PREINCUBATION) was “inactive; negative” and the mutagenic call (Test System: AMES SALMONELLA TYPHIMURIUM, Strain/Indicator: TA2637, Metabolic Activation: RAT, LIVER, S-9, PHENOBARBITAL AND 5,6-BENZOFLAVONE, Method: PREINCUBATION) was “inactive; negative”.
With `CC(=O)Nc1ccc2ccc3cccc4ccc1c2c34` the mutagenic call (Test System: AMES SALMONELLA TYPHIMURIUM, Strain/Indicator: TA98(1,8-DNP6), Metabolic Activation: NONE, Method: STANDARD PLATE) was “inactive; negative”, the mutagenic call (Test System: AMES SALMONELLA TYPHIMURIUM, Strain/Indicator: TA98(1,8-DNP6), Metabolic Activation: RAT, LIVER, S-9, AROCLOR 1254, Method: STANDARD PLATE) was “inactive; negative” and the mutagenic call (Test System: AMES SALMONELLA TYPHIMURIUM, Strain/Indicator: TA98(NR), Metabolic Activation: NONE, Method: STANDARD PLATE) was “inactive; negative”. The mutagenic call (Test System: AMES SALMONELLA TYPHIMURIUM, Strain/Indicator: TA98(NR), Metabolic Activation: RAT, LIVER, S-9, AROCLOR 1254, Method: STANDARD PLATE) was “active; positive”, the mutagenic call [1] was “inactive; negative” and the mutagenic call [2] was “active; positive”.
For `C[C@@H]1C[C@H]2[C@@H]3CCC4=CC(=O)C=C[C@]4(C)[C@@]3(F)[C@@H](O)C[C@]2(C)[C@@]1(O)C(=O)CO`, the mutagenic call (End Point: IN VITRO CHROMOSOMAL ABERRATIONS, Test System: HUMAN PERIPHERAL LYMPHOCYTES, Metabolic Activation: NONE) was “active; positive at 10 and 100 ug/ml with 72 hr treatment”, the mutagenic call (End Point: IN VIVO MICRONUCLEUS, Test System: BONE MARROW POLYCHROMATIC ERYTHROCYTES, Species: MOUSE, Strain/Sex: SWISS/MALE, Route: IP INJECTION (SINGLE DOSE)) was “active; positive” and the mutagenic call (Test System: AMES SALMONELLA TYPHIMURIUM, Strain/Indicator: TA97A, Metabolic Activation: NONE, Method: STANDARD PLATE) was “inactive; negative”. The mutagenic call (Test System: AMES SALMONELLA TYPHIMURIUM, Strain/Indicator: TA97A, Metabolic Activation: RAT, LIVER, S-9, PHENOBARBITAL, Method: STANDARD PLATE) was “inactive; negative”, the mutagenic call [1] was “inactive; negative” and the mutagenic call (Test System: AMES SALMONELLA TYPHIMURIUM, Strain/Indicator: TA98, Metabolic Activation: RAT, LIVER, S-9, PHENOBARBITAL, Method: STANDARD PLATE) was “inactive; negative”. For the same compound, the mutagenic call [3] was “inactive; negative”, the mutagenic call (Test System: AMES SALMONELLA TYPHIMURIUM, Strain/Indicator: TA100, Metabolic Activation: RAT, LIVER, S-9, PHENOBARBITAL, Method: STANDARD PLATE) was “inactive; negative” and the mutagenic call [4] was “inactive; negative”. For the same compound, the mutagenic call (Test System: AMES SALMONELLA TYPHIMURIUM, Strain/Indicator: TA1535, Metabolic Activation: RAT, LIVER, S-9, PHENOBARBITAL, Method: STANDARD PLATE) was “inactive; negative”.
